In patent publication US20250236616A1, “IMMUNOMODULATING AZALIDES” (Zoetis Services LLC, priority 2021, published 2025):
Marks after values point to notes of the source that are not given here.

What was measured:
P. multocida 46572 = assay: In vivo mouse lung infection challenge model (murine efficacy), survival; design: species or system CD-1 female mice; conditions: P. multocida 46572 intranasal challenge; 20 mg/kg subcutaneous; harmonized relative to vehicle (−) and M9 (+) controls
Procedure: The challenge organism was P. multocida 46572. Target challenge concentration was 5×10^2 CFU/mouse. Isolated colonies from overnight growth (37° C. with 5% CO2) on trypticase soy agar (TSA II) blood plates were transferred to room temperature Brain Heart Infusion Broth (BHIB). The broth culture was incubated 3.5-4 hours to approximately mid-log phase of growth, as measured by forward light scatter at 600 nm (OD600, 0.200). The culture was centrifuged to collect the bacterial pellet. The pellet was re-suspended in BHIB and adjusted to provide an approximate concentration of 2.7 log 10 colony forming units (CFU) in 0.04 mL at the highest concentration. The challenge inoculum concentration was confirmed by serial dilutions of the inoculum for CFU enumeration. On Day −5, CD −1 female mice were received. Mice were given standard rodent diet and water ad libitum. On Day 0, bacterial inoculum (0.04 mL) was administered to each mouse (n=36) intranasally. Compounds of the invention were dosed at 20 mg/kg (0.1 mL) in a buffered (˜pH 5.4) propylene glycol, monothioglycerol and water solution by subcutaneous injection. Animals were observed from Days 1-10. The study was terminated on Day 10. In addition, some treatment groups were sampled at 6, 24, and 48 hours post bacterial challenge for RNA sequence analysis of lung tissue.
The murine efficacy model (P.multocida challenge) was optimized, and the treatment group size was powered to be able to observe statistically significant improvement of survival to expected ranges for immunomodulatory compounds. The experimental design was a randomized complete block design. Mice were individually identified and treatment groups comingled within a cage, with every treatment group equally represented across cages. Mortality was the primary variable. Mortality data was analyzed using a generalized mixed model with fixed effect of treatment and random effect of block. Survival time was also analyzed using the SAS PHREG (survival analysis) procedure to examine whether there were significant differences between treatment groups and the control group. Numerous compounds of the invention and M9 (positive control) were tested in this model at a dose of 20 mg/kg (Table 3). Typical percent survival for no treatment control is in the range of 0-20% based on study to study variation in challenge inoculum and rate of infection. […] Mouse survival for M9 was about 90-100%, further supporting its residual antibacterial properties against the bacterial strain.

TNF-α = assay: Whole bovine blood assay, LPS-induced TNF-α; format: cell-based; conditions: fresh whole bovine blood, LPS stimulant, top drug concentration 250 μM
Outline: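 Fresh heparinized bovine whole blood was preincubated with compound 4 h at 37 °C, then stimulated with LPS (final 1 μg/mL) for 18 h at 37 °C. Plasma TNF-α was quantified by MSD U-Plex chemiluminescent immunoassay, normalized to total protein (BCA), and IC50 taken for LPS-induced TNF-α inhibition.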

IL-1β = assay: Whole bovine blood assay, LPS-induced IL-1β (inhibition / overstimulation); format: cell-based; conditions: drug concentration giving overstimulation (OS) of LPS-induced IL-1β, top concentration 250 μM
Outline: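 IL-1β was quantified by MSD U-Plex chemiluminescence in plasma and normalized to BCA total protein. Bovine blood was pretreated 4 h at 37 °C with compound dilutions before 18 h LPS challenge (1 μg/mL final). Rising IL-1β at high concentrations was recorded as overstimulation.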

[1] = system: BRD pathogens, M. haemolytica and P. multocida; assay: MIC screening panel, BRD pathogens (CLSI broth micro-dilution); format: cell-based; conditions: at least one BRD pathogenic strain, top concentration 64 μg/mL
Excerpt: Primary screening of the compounds of the invention included the evaluation of antibacterial activity of analogs through determination of microbial inhibition concentration (MIC) as per CLSI guidelines. The screening panel included the relevant BRD pathogens: 1) M. haemolytica (e.g., 12726, 46571 and 49023, all AHDRCC; and 33396 (ATCC)); and 2) P. multocida (e.g., 34135 and 46572 (both AHDRCC) and 43137 (ATCC)). In some instances, H. somni (A700025K) pathogens were also included in the screening panel. The AHDRCC strains originated from the Zoetis BRD/SRD surveillance program and refer to the Animal Health Development and Research Culture Collection. In addition, the screen assessed S. aureus (29213 ATCC) as a representative Gram-positive isolate, E.faecalis (19433 ATCC) as a commensal gram-positive gastrointestinal bacterium and E. coli (100, 3110 and 25922 (ATCC)) for the evaluation of efflux potential. The screening panel BRD pathogens were assessed in determining antibacterial activity of the Formula (1) compounds.
All relevant BRD pathogens were initially screened at a top concentration of 64 μg/mL of a Formula (1) compound in an eleven-point dilution series. […] If an Example was purified further, the MICs moved […] essentially two dilutions across all strains tested in the screening panel.
In-Vitro MIC Model Compounds were analyzed for antibacterial activity against a panel of animal health specific gram-positive and gram-negative clinical strains by diluting compounds in DMSO to an appropriate stock concentration to determine the Minimal Inhibitory Concentration (MIC) via a semi-automated broth micro-dilution method (CLSI reference method) with QC strains and anti-microbial agent(s). Specifically, bacteria were grown overnight on TSA w/5% sheep blood agar plates and diluted in saline buffer to a McFarland Standard 0.5, then further diluted in cation-ion adjusted Mueller Hinton Broth to a final concentration of approximately 5×10^5 CFU/mL. 100 μL of inoculated media was added to 96-well plate(s) with 3 μL of serially diluted compound in each row. Depending on strain (see CLSI reference method), bacteria were incubated 18-22 hours at 35-37° C. in ambient air, with 5% CO2 or anaerobically (up to 48 hours).

IL-6 = assay: Whole bovine blood assay, LPS-induced IL-6; format: cell-based; conditions: fresh whole bovine blood, LPS stimulant, top drug concentration 250 μM

Molecule	minimal effective concentration (IL-1β) [µM]	MIC flag (*) for BRD pathogenic strains ([1]; Table C)	IC50 (IL-6) [µM]	IC50 (TNF-α) [µM]	further results
CCCNC[C@]1(O)[C@H](C)O[C@@H](O[C@H]2[C@H](C)[C@@H](O[C@@H]3O[C@H](C)C[C@H](N(C)S(=O)(=O)c4ccc(C(F)(F)F)cc4)[C@H]3O)[C@](C)(O)C[C@@H](C)CN[C@H](C)[C@@H](O)[C@](C)(O)[C@@H](CC)OC(=O)[C@@H]2C)C[C@@]1(C)OC [Example B-14, N-((2S,3R,4S,6R)-2-(((2R,3S,4R,5R,8R,10R,11R,12S,13S,14R)-2-ethyl-3,4,10-trihydroxy-13-(((2R,4R,5S,6S)-5-hydroxy-4-methoxy-4,6-dimethyl-5-((propylamino)methyl)tetrahydro-2H-pyran-2-yl)oxy)-3,5,8,10,12,14-hexamethyl-15-oxo-1-oxa-6-azacyclopentadecan-11-yl)oxy)-3-hydroxy-6-methyltetrahydro-2H-pyran-4-yl)-N-methyl-4-(trifluoromethyl)benzenesulfonamide]	–	–	–	–	% Survival (P. multocida 46572): 16%
CCCNC[C@]1(O)[C@H](C)O[C@@H](O[C@H]2[C@H](C)[C@@H](O[C@@H]3O[C@H](C)C[C@H](N(C)S(=O)(=O)N(C)c4ccc(C(F)(F)F)cc4)[C@H]3O)[C@](C)(O)C[C@@H](C)CN[C@H](C)[C@@H](O)[C@](C)(O)[C@@H](CC)OC(=O)[C@@H]2C)C[C@@]1(C)OC [Example B-113, (2R,3S,4R,5R,8R,10R,11R,12S,13S,14R)-2-ethyl-3,4, 10-trihydroxy-13-[(2R,4R,5S,6S)-5-hydroxy-4-methoxy-4,6-dimethyl-5-(propylaminomethyl)oxan-2-yl]oxy-11-[(2S,3R,4S,6R)-3-hydroxy-6-methyl-4-[methyl-[methyl-[4-(trifluoromethyl)phenyl]sulfamoyl]amino]oxan-2-yl]oxy-3,5,8, 10, 12, 14-hexamethyl-1-oxa-6-azacyclopentadecan-15-one]	–	–	–	–	% Survival (P. multocida 46572): 59%; IC50 (TNF-α; Bos taurus): 7 µM
CC[C@H]1OC(=O)[C@H](C)[C@@H](OC2CC(C)(OC)C(O)(CN3CCCCC3)[C@@H](C)O2)[C@H](C)[C@@H](O[C@@H]2O[C@H](C)C[C@H](N(C)S(=O)(=O)c3ccc(Cl)cc3)[C@H]2O)[C@](C)(O)C[C@@H](C)CN(C)[C@H](C)[C@@H](O)[C@]1(C)O (stereo partly drawn) [Example C-38, 4-chloro-N-((2S,3R,4S,6R)-2-(((2R,3S,4R,5R,8R,10R,11R,12S,13S,14R)-2-ethyl-3,4,10-trihydroxy-13-(((6R)-5-hydroxy-4-methoxy-4,6-dimethyl-5-(piperidin-1-ylmethyl)tetrahydro-2H-pyran-2-yl)oxy)-3,5,6,8, 10, 12, 14-heptamethyl-15-oxo-1-oxa-6-azacyclopentadecan-11-yl)oxy)-3-hydroxy-6-methyltetrahydro-2H-pyran-4-yl)-N-methylbenzenesulfonamide]	–	–	–	–	minimal effective concentration (IL-1β; Bos taurus, 18 h): 28 µM; MIC ([1]; Table C, read-out: MIC flag (*) for BRD pathogenic strains): ≤ 64 µg/mL; IC50 (IL-6; Bos taurus): 4 µM; IC50 (TNF-α; Bos taurus): 9 µM
CC(=O)O.CC[C@H]1OC(=O)[C@H](C)[C@@H](O[C@H]2C[C@@](C)(OC)[C@](O)(CN3CCCCC3)[C@H](C)O2)[C@H](C)[C@@H](O[C@@H]2O[C@H](C)C[C@H](N(C)S(=O)(=O)Nc3ccc(C(F)(F)F)cc3)[C@H]2O)[C@](C)(O)C[C@@H](C)CN(C)[C@H](C)[C@@H](O)[C@]1(C)O [Example C-57, (2R,3S,4R,5R,8R,10R,11R,12S,13S,14R)-2-ethyl-3,4, 10-trihydroxy-13-[(2R,4R,5S,6S)-5-hydroxy-4-methoxy-4,6-dimethyl-5-(piperidin-1-ylmethyl)oxan-2-yl]oxy-11-[(2S,3R,4S,6R)-3-hydroxy-6-methyl-4-[methyl-[[4-(trifluoromethyl)phenyl]sulfamoyl]amino]oxan-2-yl]oxy-3,5,6,8, 10, 12, 14-heptamethyl-15-oxo-1-oxa-6-azacyclopentadecane, acetic acid]	16	C-57* (MIC ≤64 μg/mL for at least one BRD pathogenic strain)	9	6	–
CC(=O)O.CCCN1C[C@H](C)C[C@@](C)(O)[C@H](O[C@@H]2O[C@H](C)C[C@H](N(C)S(=O)(=O)Nc3ccc(C(F)(F)F)cc3)[C@H]2O)[C@@H](C)[C@H](O[C@H]2C[C@@](C)(OC)[C@](O)(CN3CCCCC3)[C@H](C)O2)[C@@H](C)C(=O)O[C@H](CC)[C@@](C)(O)[C@H](O)[C@H]1C [Example C-58, (2R,3S,4R,5R,8R,10R,11R,12S,13S,14R)-2-ethyl-3,4,10-trihydroxy-13-[(2R,4R,5S,6S)-5-hydroxy-4-methoxy-4,6-dimethyl-5-(piperidin-1-ylmethyl)oxan-2-yl]oxy-11-[(2S,3R,4S,6R)-3-hydroxy-6-methyl-4-[methyl-[[4-(trifluoromethyl)phenyl]sulfamoyl]amino]oxan-2-yl]oxy-3,5,8, 10, 12,14-hexamethyl-15-oxo-6-propyl-1-oxa-6-azacyclopentadecane, acetic acid]	12	C-58* (MIC ≤64 μg/mL for at least one BRD pathogenic strain)	13	9	–
(2R,3S,4R,5R,8R,10R,11R,12S,13S,14R)-2-ethyl-3,4,10-trihydroxy-13-[(2R,4R,5S,6S)-5-hydroxy-4-methoxy-4,6-dimethyl-5-[(3,3,3-trifluoropropylamino)methyl]oxan-2-yl]oxy-11-[(2S,3R,4S,6R)-3-hydroxy-6-methyl-4-[methyl-[[4-(trifluoromethyl)phenyl]sulfamoyl]amino]oxan-2-yl]oxy-3,5,8, 10, 12,14-hexamethyl-15-oxo-1-oxa-6-azacyclopentadecane [Example B-65]	6	–	15	9	MIC flag (*) for BRD pathogenic strains ([1]; Table B): B-65* (MIC ≤64 μg/mL for at least one BRD pathogenic strain)
(2R,3S,4R,5R,8R,10R,11R, 12S, 13S, 14R)-2-ethyl-11-[(2R,3S,4R,6S)-4-[(3-fluorophenyl) sulfamoyl-methylamino]-3-hydroxy-6-methyloxan-2-yl]oxy-3,4, 10-trihydroxy-13-[(2R,4R,5S,6S)-5-hydroxy-4-methoxy-4,6-dimethyl-5-(piperidin-1-ylmethyl)-oxan-2-yl]oxy-3,5,8,10, 12,14-hexamethyl-15-oxo-1-oxa-6-azacyclopentadecane [Example C-24]	3	C-24* (MIC ≤64 μg/mL for at least one BRD pathogenic strain)	25	16	–
